According to US20080299123A1, “TREATMENT OF CHEMOTHERAPY- OR RADIOTHERAPY-RESISTANT TUMORS” (Deutsches Krebsforschungszentrum Stiftung des offentlichen …, priority 2006, published 2008):

Test system: cathepsin B and CRABPII transcription
Assay: L1-dependent gene regulation by qPCR in HEK293-hL1wt cells
Type: cell-based, human
Conditions: preincubation 96 h
Method: (A) Analysis of L1-32 cleavage by γ-secretase. Cells were treated for 48 h at 37° C. with presenilin inhibitor IX (DAPT) or for control with DMSO. Isolated membranes were incubated for 2 h at 37° C. and then separated into pellet or supernatant (SN) fractions by ultracentrifugation. Lanes 1 to 2 show cells treated with DMSO (vehicle). Lanes 3 and 4 show cells preincubated with DAPT. (B) SKOV3ip cells were treated with DAPT either in the presence or absence of the metalloprotease inhibitor TAPI-0 for 24 hr. Cells were lysed in BOG lysis buffer and analyzed by Western blot analysis. The cell supernatant was analyzed for soluble L1 using mAb L1-11A and the cell lysate was examined for L1-32 using peytL1. (C) HEK293 or HEK293-hL1wt cells were treated with DMSO, DAPT, TAPI-0 or both inhibitors for 96 h. mRNA was transcribed to cDNA and analyzed by qPCR for the genes CRABPII and cathepsin B. (D) Analysis of ERK phosphorylation in SKOV3ip cells after treatment with the indicated compounds.
We next investigated whether L1-mediated gene regulation was dependent on L1-processing, by carrying out inhibition experiments. […]
mRNA was isolated using the Quiagen RNAeasy mini kit (Quiagen Hilden, Germany). […] After exposing of the hybridized membranes, the PhosphorImager screens were scanned (Fuji FLA-3000, 100 μm resolution, Fuji BAS-reader software). […]

## CC(C)C[C@H](CC(=O)NO)C(=O)N[C@@H](Cc1ccc2ccccc2c1)C(=O)N[C@@H](C)C(N)=O [TAPI-0]
  L1-dependent regulation of transcription for cathepsin B and CRABPII: blocked
